Reference: ChEMBL document CHEMBL1127203, “Janus compounds: dual inhibitors of proteinases” (Bioorg Med Chem Lett, 1993)
Square brackets hold non-standard residues; d marks the D form. Peptide text beside a SMILES is read from it. * marks the point of attachment. ξ: configuration not given here. ξF = NC(Cc1ccccc1)C(=O)O; Boc = CC(C)(C)OC(=O)*; CF3 = FC(F)(F)*

Assays:
[1] = target: T1, Cathepsin G (Homo sapiens, UniProt P08311); test: The compound was tested for its potency to inhibit human Cathepsin G
T1 sequence (P08311 whole entry): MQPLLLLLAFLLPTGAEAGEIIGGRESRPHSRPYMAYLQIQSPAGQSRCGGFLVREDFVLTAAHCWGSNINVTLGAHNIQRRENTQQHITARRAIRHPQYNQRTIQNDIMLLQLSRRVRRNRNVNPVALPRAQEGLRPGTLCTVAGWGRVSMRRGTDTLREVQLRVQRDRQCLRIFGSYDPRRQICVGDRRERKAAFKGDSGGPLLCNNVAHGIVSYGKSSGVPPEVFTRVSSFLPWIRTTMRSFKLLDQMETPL

[2] = target: T2, Neutrophil elastase (Homo sapiens, UniProt P08246); test: The compound was tested for its potency to inhibit human neutrophil elastase activity
T2 sequence (P08246 whole entry): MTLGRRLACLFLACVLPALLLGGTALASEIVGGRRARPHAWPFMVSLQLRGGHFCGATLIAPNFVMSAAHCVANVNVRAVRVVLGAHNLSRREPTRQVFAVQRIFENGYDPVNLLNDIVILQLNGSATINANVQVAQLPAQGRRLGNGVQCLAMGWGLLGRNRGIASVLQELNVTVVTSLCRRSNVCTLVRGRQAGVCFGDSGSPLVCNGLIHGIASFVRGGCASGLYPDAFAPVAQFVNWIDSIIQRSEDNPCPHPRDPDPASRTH

[3] = target: Chymotrypsinogen A (Bos taurus, UniProt P00766); test: The compound was tested for its potency to inhibit alpha-Chymotrypsin

Ki [1] | Ki [2] | Ki [3] | Structure (SMILES)
> 1000 µM | 0.004 µM | 1.2 µM | CC(C)C(NC(=O)[C@@H]1CCCN1C(=O)[C@@H](NC(=O)c1ccc(C(=O)NC(Cc2ccccc2)C(=O)C(F)(F)F)cc1)C(C)C)C(=O)C(F)(F)C(F)(F)F (some centres not stated)
– | 0.055 µM | – | CC(C)C(NC(=O)[C@@H]1CCCN1C(=O)[C@@H](NC(=O)OC(C)(C)C)C(C)C)C(=O)C(F)(F)C(F)(F)F (some centres not stated)
2.2 µM | 0.0159 µM | – | CC(C)C(NC(=O)[C@@H]1CCCN1C(=O)[C@@H](NC(=O)c1ccc(C(=O)N[C@@H](C(=O)N2CCC[C@@H]2C(=O)NC(Cc2ccccc2)C(=O)C(F)(F)F)C(C)C)cc1)C(C)C)C(=O)C(F)(F)C(F)(F)F (some centres not stated)
1.7 µM | – | – | CC(C)[C@H](NC(=O)OC(C)(C)C)C(=O)N1CCC[C@H]1C(=O)NC(Cc1ccccc1)C(=O)C(F)(F)F (stereo partly drawn) (Boc-Val-Pro-[ξF]-CF3)
